Experimental data from patent publication US20060123501A1, “Method for treating inflammatory disorders” (priority 2004, published 2006).
Like-named read-outs stand apart in the source and are kept apart here.

Legend:
[1] = test system: cIAP2−/− and control mice
Description: In addition, we exposed cIAP2^−/− mice to a second mode of LPS-induced toxicity, where treatment with D-galactosamine (DGLBN) sensitized mice to endotoxic shock.

peritoneal macrophages = experiment: TNF-α and IL-1β production of cultured peritoneal macrophages exposed to LPS (ELISA); type: cell-based, mouse; conditions: cIAP2−/− peritoneal macrophages; LPS 0.1 to 1000 ng/ml; 10 and 24 h
Description: Spleen- and peritoneal-derived macrophage cell count numbers are shown (A) for cIAP2^−/−, cIAP2^+/− and cIAP2^+/+ mice (n=10). Both cIAP2^−/− and littermate control-derived macrophages stained for the LPS binding surface receptor CD14 (B). The proliferation of B cells for cIAP2^−/− mice and littermate controls of cIAP2^+/+ after culturing with the indicated range of LPS doses (n=6) (C). Cultured macrophages from cIAP2^−/− or littermate control cIAP2^+/+ mice were exposed to LPS for 10 h and subsequently IL-1β (D) or TNF-α (E) levels were measured by ELISA (n=6). Additionally, macrophages were exposed to the indicated range of LPS doses for 24 h and IL-1β (F) or TNF-α (G) levels were determined (n=6). Results are mean±s.d. in triplicate per mouse, P<0.01
This dysfunction may be correlated to a reduced initial number of macrophages, to a block in the LPS-induced signaling pathway, or to an increased apoptotic susceptibility of the cIAP2^−/− macrophages. […]
T and B cells were isolated from mouse lymphoid tissue (spleen) by first mincing and then pressing the tissue through a 10 μm metal mesh and were then counted by using trypan blue exclusion method. […] The resulting cells were then counted by using typan blue exclusion and Diff Quik™ Stain Kit (IMEB INC, San Marcos, Calif.). […] Concentrations of TNF-α and IL-1β, in primary tissue culture supernatants were determined by ELISA kit (R&D Systems).

## lipopolysaccharide [LPS]
[1]; LPS with DGLN, cIAP2−/− mice and control littermates
  Time to demise of the mice: < 3 h
[1]; cIAP2+/+ mice, LPS 0.5 μg/kg with D-galactosamine 0.6 g/kg i.p.
  Survival: 6/6
[1]; cIAP2+/+ mice, LPS 1 μg/kg with D-galactosamine 0.6 g/kg i.p.
  Survival: 6/6
[1]; cIAP2+/+ mice, LPS 5 μg/kg with D-galactosamine 0.6 g/kg i.p.
  Survival: 2/6
[1]; cIAP2+/+ mice, LPS 10 μg/kg with D-galactosamine 0.6 g/kg i.p.
  Survival: 0/6
[1]; cIAP2+/+ mice, LPS 20 μg/kg with D-galactosamine 0.6 g/kg i.p.
  Survival: 0/6
[1]; cIAP2−/− mice, LPS 0.5 μg/kg with D-galactosamine 0.6 g/kg i.p.
  Survival: 6/6
[1]; cIAP2−/− mice, LPS 1 μg/kg with D-galactosamine 0.6 g/kg i.p.
  Survival: 6/6
[1]; cIAP2−/− mice, LPS 5 μg/kg with D-galactosamine 0.6 g/kg i.p.
  Survival: 2/6
[1]; cIAP2−/− mice, LPS 10 μg/kg with D-galactosamine 0.6 g/kg i.p.
  Survival: 0/6
[1]; cIAP2−/− mice, LPS 20 μg/kg with D-galactosamine 0.6 g/kg i.p.
  Survival: 0/6
Peritoneal macrophages
  TNF-α and IL-1β levels relative to littermate controls: generated comparable levels of TNF-α and IL-1β
